Like-named read-outs stand apart in the source and are kept apart here.
Experiments:
[1] = test system: SNU1040 (HER2 V777M positive); assay: Growth inhibition GI50 in vitro (CCK8/MTT, 72 h); type: cell-based; settings: Homo sapiens, read-out: GI50 SNU-1040 (HER2 V777M)
[2] = Pharmacokinetics in rat; type: in vivo, Sprague-Dawley (SD) rats; settings: male, Sprague-Dawley, plasma, SD rat, iv 5 mg/kg, solvent water
Protocol: Sprague-Dawley (SD) rats (male) were purchased from Shanghai SIPPR BK Laboratory Animals Co. and kept under specific pathogen-free conditions adaptively for 7 days in the Shanghai University of Traditional Chinese Medicine animal care facility (All animal studies were conducted with the approval of the University Ethics Committee). The rats were randomly divided to 2 groups (3 rats/group) for each compound. One group was administrated by tail vein injection (iv) and the other group was intragastrically administrated. The compound was formulated into a clear aqueous solution with methanesulfonic acid, PH>3.5. The rats were starved for 12 hours before drug administration and the blood samples were collected from the orbital plexus at 0 min (before drug administration), 2 min, 5 min, 15 min, 30 min, 1 h, 2 h, 4 h, 6 h, 8 h and 24 h, respectively. Each blood sample was added to a 1.5 mL centrifuge tube with heparin sodium and then centrifuged at 8000 rpm at 4° C. for 3 min. Upper blood serum was collected. The compound concentration in plasma was determined by LC-MS/MS. The pharmacokinetics parameters were calculated with the professional pharmacokinetics software WinNonlin. The experiment was repeated once.

[3] = test system: H2170 (Her2 amp); assay: Growth inhibition GI50 in vitro (CCK8/MTT, 72 h); type: cell-based; settings: Homo sapiens, NCI-H2170, H2170, EGFR wt
[4] = test system: HCC1954 (Her2 amp); assay: Growth inhibition GI50 in vitro (CCK8/MTT, 72 h); type: cell-based; settings: Homo sapiens, HCC1954, EGFR wt
[5] = test system: ZR-75-30 (Her2 amp); assay: Growth inhibition GI50 in vitro (CCK8/MTT, 72 h); type: cell-based; settings: Homo sapiens, ZR-75-30, EGFR wt
[6] = test system: Kasumi-1 (Kit N822K); assay: Growth inhibition GI50 in vitro (CCK8/MTT, 72 h); type: cell-based; settings: Homo sapiens
Protocol: Kasumi-1 is a leukemia cell line positively expressing c-Kit N822K mutant Abnormal variation of c-Kit often appears in cancer patients. Kasumi-1 cell line was cultured with 1×RPMI1640 complete medium (supplement with 10% FBS).
The suspension cells were collected by centrifugation. The supernatant was discard and the cell pellet was resuspended and counted. Different cell concentrations (5˜10×10^4 cells/mL) were prepared according to the growth cycle of each cell line and then seeded on a 96-well plate (Corning), 100 μL/well. The cells were incubated over night at 37° C., 5% CO2. The compounds were added to the cells on the second day with 2 wells in parallel. The final concentration of organic solvent shall not exceed 1%. The cells were continually incubated for 72 h, and then subjected to MTT assay.
The present compounds and the reference compounds were dissolved with DMSO (Sigma), respectively. […] The storage concentration of compounds was 10 mM and kept at −20° C. They were diluted by 2 times or 10 times with serial dilution before using.
Dojindo CCK8 reagent kit was used as MTT assay. […] FC meter was used as microplate reader.
Adherent cell culture medium was discard and immediately replaced with fresh prepared medium which contains 10% CCK8 reagent (100 μL/well). For the suspension cells, CCK8 was directly added to 10% of the final concentration. The cells were continually incubated for 1˜4 h. When the color of control wells turned to dark yellow, the absorption value was measured at OD450 nm. The cell growth rate was calculated according to the following formula: cell growth rate (%)=100*(T−T0)/(C−T0), T=optical density of drug treatment cell well—optical density of blank control well; T0=optical density of cell well before drug treatment—optical density of blank control well; C=optical density of cell well of solvent control group—optical density of blank control well. […] The experiment was independently repeated 1˜3 times, and subject to biological statistical analysis.
Growth inhibition assay was conducted in the cell lines shown Table 14 with the different oncogene mutations. Each compound started at 1000 nM as an initial concentration and was diluted by 2 times with serial dilution to 0.03 nM.

[7] = Table 16, 1000 nM to 0.03 nM serial dilution

Structure (SMILES) | GI50 [1, 7] [nM] | bioavailability ([2]; po 50 mg/kg) [%] | GI50 [3] [nM] | GI50 [4] [nM] | GI50 [5] [nM] | GI50 [6] [nM] | bioavailability ([2]; po 25 mg/kg) [%] | GI50 [1] [nM]
C=CC(=O)Nc1cc(Nc2nccc(-n3ccc4c(OC)cccc43)n2)c(OC)cc1N(C)CCN(C)C [Compound 99, N-(5-(4-(4-methoxyl-1H-indol-1-yl)-pyrimidin-2-ylamino)-2-(2-(dimethylamino-ethyl)-methyl-amino)-4-methoxyl-phenyl)-acrylamide] | 19.5 | 40.9 |  |  |  |  |  | 
C=CC(=O)Nc1cc(Nc2nccc(-n3ccc4c(OCCOC)cccc43)n2)c(OC)cc1N(C)CCN(C)C [Compound 205, N-(5-(4-(4-(2-methoxyl-ethoxyl)-1H-indol-1-yl)-pyrimidin-2-ylamino)-2-(2-(dimethylamino-ethyl)-methyl-amino)-4-methoxyl-phenyl)-acrylamide] | 14.3 |  |  |  |  |  |  | 
C=CC(=O)Nc1cc(Nc2nccc(Nc3cccc(Cl)c3)n2)c(OC)cc1N(C)CCN(C)C [Compound 2, N-(5-(4-(3-chloro-phenylamino)-pyrimidin-2-ylamino)-2-(2-(dimethylamino-ethyl)-methyl-amino)-4-methoxyl-phenyl)-acrylamide] |  |  | 12.6 | 375 | 6 | > 1000 |  | 
C=CC(=O)Nc1cc(Nc2ncnc(Nc3cccc(Br)c3)n2)c(OC)cc1N1CCC(N2CCCC2)CC1 [Compound 118] |  |  | 6.8 | 37.5 | 2.6 | < 100 |  | 
C=CC(=O)Nc1cc(Nc2cc(Nc3cc(OC)c(Cl)cc3Cl)ncn2)c(OC)cc1N(C)CCN(C)C [Compound 136, N-(5-(6-(2,4-dichloro-5-methoxyl-phenylamino)-pyrimidin-4-ylamino)-2-((2-dimethylamino-ethyl)-methyl-amino)-4-methoxyl-phenyl)-acrylamide] | 16.2 |  |  |  |  |  |  | 
C=CC(=O)Nc1cc(Nc2nccc(-n3cnc4ccccc43)n2)c(OC)cc1N(C)CCN(C)C [Compound 106] |  |  | 9.4 | 375 | 12 | > 1000 |  | 
C=CC(=O)Nc1cc(Nc2cc(-c3cn(C(C)C)c4ccccc34)ncn2)c(OC)cc1N(C)CCN(C)C [Compound 183] |  |  | 12.5 | 156 | 6 | > 1000 |  | 
C=CC(=O)Nc1cc(Nc2ncc(Cl)c(Nc3ccc(OCc4ccccn4)c(Cl)c3)n2)c(OC)cc1N(C)CCN(C)C [Compound 19, N-(5-(5-chloro-4-(3-chloro-4-(pyridin-2-methoxyl)phenylamino)-pyrimidin-2-ylamino)-2-((2-(dimethylamino)ethyl)(methyl)amino)-4-methoxyl-phenyl)-acrylamide] |  |  | 14.6 | 312 | 2.1 | > 1000 |  | 
C=CC(=O)Nc1cc(Nc2cc(Nc3ccc(F)c(Cl)c3)ncn2)c(OC)cc1N(C)CCN(C)C [Compound 140, N-(5-(6-(3-chloro-4-fluoro-phenylamino)-pyrimidin-4-ylamino)-2-((2-dimethylamino-ethyl)-methyl-amino)-4-methoxyl-phenyl)-acrylamide] |  |  | 4.8 | 26.5 | 1.5 | > 1000 |  | 
C=CC(=O)Nc1cc(Nc2nccc(-n3ccc4ccc(F)cc43)n2)c(OC)cc1N(C)CCN(C)C [Compound 63, N-(5-(4-(6-fluoro-1H-indol-1-yl)-pyrimidin-2-ylamino)-2-((2-(dimethylamino)ethyl)-methyl-amino)-4-methoxyl-phenyl)-acrylamide] |  |  |  |  |  |  | 55.8 | 
C=CC(=O)Nc1cc(Nc2nccc(-c3cn(C)c4ccccc34)n2)c(OC)cc1N(C)CCN(C)C [AZD9291, reference compound] |  |  | 117 | > 1000 | 31 | > 1000 |  | 156
C=CC(=O)Nc1cc(Nc2nccc(Nc3ccc(OCc4ccccn4)c(Cl)c3)n2)c(OC)cc1N(C)CCN(C)C [Compound 18, N-(5-(4-(3-chloro-4-(pyridin-2-methoxyl)phenylamino)pyrimidin-2-ylamino)-2-((2-(dimethylamino)ethyl)(methyl)amino)-4-methoxyl-phenyl)-acrylamide] |  |  | 19.5 | 312 | 2.1 | > 1000 | 50.3 | 
C=CC(=O)Nc1cc(Nc2ncnc(Nc3cccc(F)c3)n2)c(OC)cc1N(C)CCN(C)C [Compound 114, N-(5-(4-(3-fluoro-phenylamino)-[1,3,5]triazin-2-ylamino)-2-((2-dimethylamino-ethyl)-methyl-amino)-4-methoxyl-phenyl)-acrylamide] |  |  | 4.8 | 37.5 | 1.1 | < 100 |  | 
C=CC(=O)Nc1cc(Nc2cc(Nc3ccc(F)c(Cl)c3)ncn2)c(OC)cc1N1CCN(C2CCN(C)CC2)CC1 [Compound 147, N-(5-(6-(3-chloro-4-fluoro-phenylamino)-pyrimidin-4-ylamino)-4-methoxyl-2-(4-(1-methylpiperidin-4-yl)-piperazin-1-yl)-phenyl)-acrylamide] |  |  | 4.8 | 26.5 | 1.5 | > 1000 |  | 
C=CC(=O)Nc1cc(Nc2cc(Nc3cc(F)c(OC)c(Cl)c3)ncn2)c(OC)cc1N(C)CCN(C)C [Compound 236, N-(5-(6-(3-chloro-5-fluoro-4-methoxyphenylamino)-pyrimidin-4-yl-amino)-2-((2-dimethylamino-ethyl)-methyl-amino)-4-methoxyl-phenyl)-acrylamide] | 5.42 |  |  |  |  |  |  | 

From patent US10342796B2, “Acrylanilide derivative, preparation method, and applications thereof in pharmacy” (Ancureall Pharmaceutical (Shanghai) Co., Ltd., priority 2015, dated 2019)
